Drawing on patent publication US8653285B2 (Nippon Zoki Pharmaceutical Co., Ltd., priority 2008, dated 2014), this text covers IC50 and ED50 for 17 compounds.

SMILES strings stand for the structures. pIC50: −log10 of the molar value. Counter-ions that a name gives are not always drawn. Like-named read-outs stand apart in the source and are kept apart here.

Experiment [1] concerns the target human histamine H1 receptor (Homo sapiens, UniProt P35367). Nature of the experiment: In vitro human histamine H1 receptor binding experiment ([3H]pyrilamine, HEK293A cells stably expressing the receptor). The note with it: [3H]pyrilamine 3 nmol/L, room temperature 60 minutes. The method, then:
Recombinant human histamine H1 receptor plasmid (prepared by Invitrogen) was transfected to HEK293A cells with Lipofectamine 2000 (Invitrogen). Cells stably expressing human histamine H1 receptor were screened with Geneticin (Invitrogen). The cells were continued to be cultured using a Dulbecco's Modified Eagle Medium containing 10% fetal bovine serum, 0.1 mmol/L MEM Non-Essential Amino Acids Solution, 2 mmol/L L-glutamine and 0.7 mg/mL Geneticin in a 5% CO2 incubator at 37° C. The cells stably expressing human histamine H1 receptor were prepared using 50 mmol/L Tris-HCl (pH 7.5) (hereinafter referred to as buffer) containing 0.1% bovine serum albumin, so as to have a concentration of 3×10^6 cells/mL, to give a cell sample preparation. Fifty microliters of the buffer, 50 μL of a test substance solution at various concentrations, and 50 μL of [^3H]pyrilamine solution (final concentration: 3 nmol/L) were added to each of the wells on the 96-well plate, and stirred, and 100 μL of the cell sample preparation was then added thereto (at a concentration of 3×10^5 cells/well) to initiate the reaction.
The cells were incubated at room temperature for 60 minutes, and then filtered on UniFilter GF/C plate (Packard) immersed in 0.5% polyethyleneimine using a cell harvester (IH-110, INNOTECH CORPORATION), to stop the reaction, and the plate was washed with the buffer. The plate after washing was sufficiently dried, and 20 μL of a scintillator (MaxiLight, manufactured by Hidex) was added thereto, and count per minute (cpm) was measured with a multi-labeled microplate reader (Plate Chameleo II, Hidex). The nonspecific binding was cpm in a case where 30 μmol/L pyrilamine was added. The experiments were carried out at n=3, and at least repeated 3 times.

Experiment [2] concerns histamine-induced vascular hyperpermeability. Briefly: Rat histamine-induced vascular hyperpermeability reaction (in vivo antihistamine action). The note with it: SD male rat, oral administration, histamine injected intracutaneously 1 hour after administration, leaked Evans Blue; read-out: ED50. The protocol:
An SD male rat (SPF) of 180 g in weight was previously fed for one week or more by allowing the rat to take a solid feed and tap water ad libitum, under the environment setting of a temperature of 22° C., humidity of 55% and an artificial illumination of 12 hours a day (light phase 8 am to 8 pm), and the rat was fasted overnight to be used for the experiment. Histamine.dihydrochloride (hereinafter referred to as histamine) and Evans Blue were used by dissolving each in physiological saline upon use. A substance to be tested was dissolved in water for injection or suspended in 0.5% carboxymethyl cellulose sodium, and the rat was orally administered with the solution or suspension (dose volume: 5 mL/kg body weight). After 1 hour from the administration, the physiological saline and the histamine solution were each intracutaneously injected to two locations (20 μg/0.05 ml/location) each on a back part of the rat of which hair was sheared with an electric clipper while anesthetizing with an ether. A 0.5% Evans Blue-containing physiological saline was injected into the tail vein of the rat (1 mL/200 g body weight) immediately before the intracutaneous injection of the histamine.
After 30 minutes, the animal was decapitated, and exsanguinated, and the skin was removed to measure an amount of leaked pigment in the blue-stained portion. The measurement of the amount of leaked pigment was carried out as follows. Skins of the pigment leaking site were cut out at two locations, 1 mL of a 2 mol/L aqueous potassium hydroxide solution was added thereto in a test tube, and the test tube was allowed to stand overnight at 37° C. to dissolve. Thereafter, 6 mL of a 1:3 mixed solution of 0.67 mol/L phosphoric acid and acetone was added to the solution, and the mixture was vigorously shaken for 10 minutes. Thereafter, the mixture was filtered, and the absorbance of the filtrate at 620 nm was measured. The absorbance obtained from the two locations of the sites injected with physiological saline, as blank value, was used for a compensation. The amount of leaked pigment was calculated from the calibration curve of Evans Blue at 620 nm.

The target in experiment [3] is T1, cerebral H1 receptor (Mus musculus, UniProt P70174).
T1 construct: The excised brain tissue was homogenized with Polytron (Kinematica); from tissue; host or cells: ICR mouse brain (entire brain except cerebellum and medulla oblongata), homogenate
T1 sequence (P70174 whole entry): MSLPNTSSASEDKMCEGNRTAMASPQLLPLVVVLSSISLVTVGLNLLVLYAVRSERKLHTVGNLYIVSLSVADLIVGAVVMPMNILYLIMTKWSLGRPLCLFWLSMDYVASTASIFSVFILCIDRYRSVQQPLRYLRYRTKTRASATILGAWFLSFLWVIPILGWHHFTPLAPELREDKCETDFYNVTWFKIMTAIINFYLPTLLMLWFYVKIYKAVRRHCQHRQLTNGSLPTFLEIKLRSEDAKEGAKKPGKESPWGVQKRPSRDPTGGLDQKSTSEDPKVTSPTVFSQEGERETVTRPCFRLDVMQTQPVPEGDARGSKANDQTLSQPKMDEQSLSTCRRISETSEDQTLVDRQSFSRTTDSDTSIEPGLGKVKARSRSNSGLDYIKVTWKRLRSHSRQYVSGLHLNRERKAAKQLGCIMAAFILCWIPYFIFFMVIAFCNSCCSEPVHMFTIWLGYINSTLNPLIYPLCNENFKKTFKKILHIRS
Briefly: Murine cerebral H1 receptor occupying content (ex vivo, 3H-pyrilamine binding in brain homogenate after oral administration). The protocol:
A 6-week-old ICR male mouse was previously fed for one week or more by allowing the mouse to take a solid feed and tap water ad libitum, under the environment setting of a temperature of 22° C., humidity of 55% and an artificial illumination of 12 hours a day, and the mouse was fasted overnight to be used for the experiment. A substance to be tested was dissolved with water for injection or suspended in 0.5% carboxymethyl cellulose solution, and the solution or suspension was orally administered to the mouse (dose volume: 0.1 mL/10 g body weight). After 1 hour from the oral administration, the mouse was decapitated, and the entire brain, except for cerebellum and medulla oblongatae, was rapidly excised. The excised brain tissue was homogenized with Polytron (Kinematica) in an ice-cooled 50 mmol/L phosphate buffered saline (pH 7.4, 100 mg/1.9 mL).
To a test tube for reaction (TPX-Tube) were added 180 μL of the brain homogenate, and 10 μL of ^3H-pyrilamine solution (final concentration: 2 nmol/L) and 10 μL of a non-labeled pyrilamine solution (final concentration: 200 μmol/L) or a 50 mmol/L phosphate buffered saline, and the mixture was incubated at room temperature for 45 minutes, and 2.0 mL of an ice-cooled, 50 mmol/L phosphate buffered saline was then added thereto to stop the reaction. The reaction mixture was filtered with a GF/B filter ([…]), and the filtrate was placed in a vial and dried overnight at 60 degrees. After drying, 10 mL of a scintillator (AL-1, toluene-based, DOJINDO LABORATORIES) was added to the product, and the disintegration per minute (dpm) was measured with a liquid scintillation counter (Packard, U.S.A., TRI-CARB 2700TR) (5 minutes/vial).

The mark [4] stands for this setting: ICR male mouse, oral administration, brain excised after 1 hour, larger ID50 = lower brain transfer, read-out: ID50 (the source's name).

Sequence of human histamine H1 receptor (P35367 whole entry): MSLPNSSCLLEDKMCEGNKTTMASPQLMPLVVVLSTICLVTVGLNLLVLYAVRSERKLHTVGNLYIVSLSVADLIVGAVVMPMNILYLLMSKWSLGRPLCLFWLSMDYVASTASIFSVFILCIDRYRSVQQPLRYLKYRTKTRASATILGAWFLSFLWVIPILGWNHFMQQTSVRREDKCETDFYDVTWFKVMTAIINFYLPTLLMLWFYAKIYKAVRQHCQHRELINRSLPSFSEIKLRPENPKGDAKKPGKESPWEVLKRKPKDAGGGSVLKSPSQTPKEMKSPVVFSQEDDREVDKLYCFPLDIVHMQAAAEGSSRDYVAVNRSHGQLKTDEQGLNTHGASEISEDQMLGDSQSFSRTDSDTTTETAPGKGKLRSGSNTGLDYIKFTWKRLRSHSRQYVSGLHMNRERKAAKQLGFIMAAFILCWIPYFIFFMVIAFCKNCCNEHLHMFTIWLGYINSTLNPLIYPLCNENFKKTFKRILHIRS

As for `CN(C)CC/C=C1\c2cc(CC(=O)O)ccc2OCc2ccsc21` [Compound 19, (E)-[4-(3-Dimethylaminopropylidene)-4,10-dihydro-9-oxa-3-thiabenzo[f]azulen-6-yl]acetic acid], the negative-log IC50 (pIC50) in experiment [1] is 7.24. The ED50 in experiment [2] came out at 0.24 mg/kg; in experiment [3] (setting [4]), 6.08 mg/kg.

Regarding `CN(C)CCC=C1c2cc(C(C)(C)C(=O)O)ccc2OCc2ccsc21` [Compound 22, (E,Z)-2-[4-(3-Dimethylaminopropylidene)-4,10-dihydro-9-oxa-3-thiabenzo[f]azulen-6-yl]-2-methylpropionic acid], the negative logarithm of the IC50 (pIC50) in experiment [1] was 7.22. For the same compound, the ED50 in experiment [2] was approximately 1 mg/kg; in experiment [3] (setting [4]), 18.7 mg/kg.

Consider `CCOC(=O)C(C)(C)c1cc2c(s1)C(=O)Cc1ccccc1C2=CCCN(C)C` [Compound 24, Ethyl (E,Z)-2-[4-(3-dimethylaminopropylidene)-10-oxo-9,10-dihydro-4H-1-thiabenzo[f]azulen-2-yl]-2-methylpropionate hydrochloride], for which the negative logarithm of the IC50 (pIC50) in experiment [1] was 7.88. In addition, the ED50 in experiment [2] is approximately 1 mg/kg; in experiment [3] (setting [4]), 174 mg/kg.

In experiment [1], `O=C(O)Cc1ccc2c(c1)/C(=C\CCN1CCCC1)c1sccc1CO2` [Compound 26, (E)-{4-[3-(Pyrrolidin-1-yl)propylidene]-4,10-dihydro-9-oxa-3-thiabenzo[f]azulen-6-yl}acetic acid] gave a negative logarithm of the IC50 (pIC50) of 7.72. In addition, the ED50 was found to be 0.156 mg/kg in experiment [2] and 80.9 mg/kg in experiment [3] (setting [4]).

On to `O=C(O)Cc1ccc2c(c1)/C(=C/CCN1CCCC1)c1sccc1CO2` [Compound 27, (Z)-{4-[3-(Pyrrolidin-1-yl)propylidene]-4,10-dihydro-9-oxa-3-thiabenzo[f]azulen-6-yl}acetic acid], for which, in experiment [1], the pIC50 was 7.15. The values for the ED50 in experiment [2] and in experiment [3] (setting [4]) were 0.226 mg/kg and more than 200 mg/kg, respectively.

Consider `CN(C)CC/C=C1/c2cc(CC(=O)O)ccc2OCc2sccc21` [Compound 28, (Z)-[4-(3-Dimethylaminopropylidene)-4,10-dihydro-9-oxa-1-thiabenzo[f]azulen-6-yl]acetic acid], for which the negative-log IC50 (pIC50) in experiment [1] was 7.36. The results for the ED50 in experiment [2] and in experiment [3] (setting [4]) were less than 0.1 mg/kg and 5.85 mg/kg, respectively.

For `CN(C)CC/C=C1\c2cc(CC(=O)O)ccc2OCc2sccc21` [Compound 29, (E)-[4-(3-Dimethylaminopropylidene)-4,10-dihydro-9-oxa-1-thiabenzo[f]azulen-6-yl]acetic acid], the pIC50 in experiment [1] is 7.15. Besides, the ED50 is less than 0.1 mg/kg in experiment [2] and 23.7 mg/kg in experiment [3] (setting [4]).

For `CCN(C)CC/C=C1\c2cc(CC(=O)O)ccc2OCc2ccsc21` [Compound 30], the pIC50 in experiment [1] is 7.24. Also, the ED50 in experiment [2] was approximately 0.3 mg/kg; in experiment [3] (mouse, po, 1 h, read-out: ID50), 95 mg/kg.

Consider `O=C(O)Cc1ccc2c(c1)/C(=C\CCN1CCCCC1)c1sccc1CO2` [Compound 34, (E)-{4-[3-(Piperidin-1-yl)propylidene]-4,10-dihydro-9-oxa-3-thiabenzo[f]azulen-6-yl}acetic Acid], for which the pIC50 in experiment [1] was 7.50. Further, the figures for the ED50 in experiment [2] and in experiment [3] (setting [4]) were approximately 0.3 mg/kg and 34.8 mg/kg, respectively.

For `O=C(O)Cc1ccc2c(c1)/C(=C/CCN1CCCCC1)c1sccc1CO2` [Compound 35, (Z)-{4-[3-(Piperidin-1-yl)propylidene]-4,10-dihydro-9-oxa-3-thiabenzo[f]azulen-6-yl}acetic acid], the ED50 was approximately 0.1 mg/kg in experiment [2] and 65.7 mg/kg in experiment [3] (setting [4]).

Take `O=C(O)Cc1ccc2c(c1)/C(=C/CCNCc1ccccc1)c1sccc1CO2` [Compound 43, (Z)-[4-(3-Benzylaminopropylidene)-4,10-dihydro-9-oxa-3-thiabenzo[f]azulen-6-yl]acetic acid]: the ED50 is 1.31 mg/kg in experiment [2] and more than 80 mg/kg in experiment [3] (setting [4]).

In the case of `CN1CCN(CC/C=C2\c3cc(CC(=O)O)ccc3OCc3ccsc32)CC1` [Compound 50, (E)-{4-[3-(4-Methylpiperadin-1-yl)propylidene]-4,10-dihydro-9-oxa-3-thiabenzo[f]azulen-6-yl}acetic acid], the pIC50 in experiment [1] was 7.05. Besides, the ED50 is 1.34 mg/kg in experiment [2] and more than 80 mg/kg in experiment [3] (setting [4]).

In turn, `CN(C)CC/C=C1/c2cc(CCC(=O)O)ccc2OCc2sccc21.Cl` [Compound 57, (Z)-3-[4-(3-Dimethylaminopropylidene)-4,10-dihydro-9-oxa-1-thiabenzo[f]azulen-6-yl]propionic acid hydrochloride] showed a pIC50 in experiment [1] of 7.25. In addition, the ED50 was approximately 0.1 mg/kg in experiment [2] and more than 80 mg/kg in experiment [3] (mouse, po, 1 h, read-out: ID50).

Take `O=C(O)CCc1ccc2c(c1)/C(=C\CCN1CCCC1)c1ccsc1CO2` [Compound 58, (E)-3-{4-[3-(Pyrrolidin-1-yl)propylidene]-4,10-dihydro-9-oxa-1-thiabenzo[f]azulen-6-yl}propionic acid]: in experiment [1], the pIC50 is 7.64. Further, the ED50 in experiment [2] is approximately 0.1 mg/kg; in experiment [3] (setting [4]), 110 mg/kg.

Take `O=C(O)CCc1ccc2c(c1)/C(=C/CCN1CCCC1)c1ccsc1CO2` [Compound 59, (Z)-3-{4-[3-(Pyrrolidin-1-yl)propylidene]-4,10-dihydro-9-oxa-1-thiabenzo[f]azulen-6-yl}propionic acid]: in experiment [1], the pIC50 was 7.44. In addition, the ED50 in experiment [2] was approximately 0.3 mg/kg; in experiment [3] (setting [4]), more than 200 mg/kg.

In experiment [1], `Cl.O=C(O)Cc1ccc2c(c1)/C(=C\CCN1CCCC1)c1sccc1CO2` [Compound 70, (E)-{4-[3-(Pyrrolidin-1-yl)propylidene]-4,10-dihydro-9-oxa-3-thiabenzo[f]azulen-6-yl}acetic acid hydrochloride] had a pIC50 of 7.84. Further, the ED50 in experiment [2] is 0.42 mg/kg; in experiment [3] (mouse, po, 1 h, read-out: ID50), 51.4 mg/kg.

Turning to `Cl.O=C(O)Cc1ccc2c(c1)/C(=C/CCN1CCCC1)c1sccc1CO2` [Compound 71, (Z)-{4-[3-(Pyrrolidin-1-yl)propylidene]-4,10-dihydro-9-oxa-3-thiabenzo[f]azulen-6-yl}acetic acid hydrochloride], the pIC50 in experiment [1] was 7.20. Moreover, the ED50 in experiment [2] is 0.83 mg/kg; in experiment [3] (mouse, po, 1 h, read-out: ID50), more than 80 mg/kg.
